Assay results published in patent US20150141336A1, “Pancreatic Peptide Compounds and Use” (Novo Nordisk A/S, priority 2012, published 2015).
Numbered stars: 1 amine (or outer) side, 2 acyl side, 3 side chain; on linkers, the order of the positions; unused ones are H or OH. Side chains are listed from the residue outwards. Peptide text beside a SMILES is read from it. * marks the point of attachment. C18 diacid = O=C(O)CCCCCCCCCCCCCCCCC(=O)*; γGlu = O=C(O)[C@H](CCC(=O)[*:2])N[*:1]; AEEA = NCCOCCOCC(=O)O

Assay: Assay (II) PK i.v. minipig, in vivo half-life
Parameters: species or system Göttingen mini-pigs
Conditions: male, Göttingen, minipig, iv, Half-life minipig, Assay (II)
Method: An assay useful for measuring the pharmacokinetic (PK) profile of the PP peptide is the following mini-pig PK assay.
Five male Göttingen mini-pigs weighing approximately 18 to 22 kg from Ellegaard Göttingen Minipigs NS, Denmark are included in the study. The mini-pigs have two central venous catheters inserted which are used for intra venous (i.v.) dosing and blood sampling. The test compound is dissolved in 50 mM K2HPO4, 0.05% tween 80, pH=8.0 to a concentration of 180 nmol/ml. For comparison a control compound, such as human PP(1-36), may be administered. The pigs are dosed with 6 nmol test compound/kg body weight. Blood samples are taken at the following time points: pre-dose, 30 minutes, 1, 2, 4, 8, 24, 48, 72, 96, 120, 168 and 240 hours post dosing. The blood samples were collected into test tubes containing EDTA buffer for stabilization and kept on ice for max. 20 minutes before centrifugation. The centrifugation procedure to separate plasma may be: 4° C., approx. 2500 g for 10 minutes. Plasma is collected and immediately transferred to Micronic tubes stored at −20° C. until assayed.
The test compounds were assayed in plasma by Turbulent Flow Chromatography coupled to Liquid Chromatography with subsequent Tandem Mass Spectrometric Detection (TFC/LC/MS/MS). Positive mode ionization and Multiple Reaction Monitoring (MRM) of a multiple protonated species fragmented to a singly charged ion was employed for selectivity. The selectivity of the method allows multiple compounds to be quantified in one sample.
The concentrations of the test compound in samples of unknown concentration were calculated using the peak area as a function of amount. Calibration graphs based on plasma samples spiked with the analyte were constructed by regression analysis. Typical dynamic range for standard assay was 1-2000 nmol/I. The method performance was assured by co-assaying quality control (QC) samples in duplicate at three concentration levels.
Stock and working solutions of analytes were prepared in plasma and incubated by 37° C. for 1 hour.
Sample Preparation: 40.0 μl EDTA-plasma was added 160 μl 50% methanol, 1% formic acid, then vortexed and centrifuged at 16457 g at 4° C. for 20 minutes. The supernatant was transferred to a 96 well plate, plates incubated with 0.4% BSA, 37° C. for ½ hour. Injection volume was 25 μl.
The analysis was carried out on a Sciex API 3000 mass spectrometer (MDS/Sciex, Concord, ON, Canada) using a TurbolonSpray interface. The TFC/LC system consisted of two Flux Rheos 2000 quaternary pumps, a Cohesive VIM module (Cohesive Technologies, Franklin, Mass., USA) and a CTC LC/PAL auto sampler (CTC Analytics, Zingen, Switzerland). The centrifuge employed was a HettichMikro 22R (A. Hettich, Tuttlingen, Germany). For sample clean up a TurboFlow C8 column (0.5×50 mm) (Cohesive Technologies/Thermofisher) was used and the LC separation was done on a Proteo 4 μm column (2.0×50 mm) (Phenomenex, Torrance, Calif., USA). Eluents were isocratic and gradient combinations of methanol, acetonitril, Milli-Q water and formic acid.
Non-compartmental analysis (NCA): Plasma concentration-time profiles are analyzed by non-compartmental pharmacokinetics analysis (NCA) using WinNonlin Professional 5.0 (Pharsight Inc., Mountain View, Calif., USA). NCA is performed using the individual plasma concentration-time profiles from each animal.

SMILES | half-life [h]
CC[C@H](C)[C@H](NC(=O)[C@H](Cc1ccc(O)cc1)NC(=O)[C@H](CCCNC(=N)N)NC(=O)[C@H](CCCNC(=N)N)NC(=O)[C@H](CC(C)C)NC(=O)[C@H](CC(=O)O)NC(=O)[C@H](C)NC(=O)[C@H](C)NC(=O)[C@H](Cc1ccc(O)cc1)NC(=O)[C@H](CCC(N)=O)NC(=O)[C@H](C)NC(=O)[C@H](CCSC)NC(=O)[C@H](CCC(N)=O)NC(=O)[C@H](CCC(=O)O)NC(=O)[C@@H]1CCCN1C(=O)[C@H](CCCCNC(=O)COCCOCCNC(=O)COCCOCCNC(=O)CC[C@H](NC(=O)CCCCCCCCCCCCCCCCC(=O)O)C(=O)O)NC(=O)[C@H](C)NC(=O)[C@H](CC(N)=O)NC(=O)[C@H](CC(=O)O)NC(=O)CNC(=O)[C@@H]1CCCN1C(=O)[C@H](Cc1ccc(O)cc1)NC(=O)[C@@H](NC(=O)[C@@H]1CCCN1C(=O)[C@H](CCC(=O)O)NC(=O)[C@H](CC(C)C)NC(=O)[C@@H]1CCCN1)C(C)C)C(=O)N[C@@H](CC(N)=O)C(=O)N[C@@H](CCSC)C(=O)N[C@@H](CC(C)C)C(=O)N[C@H](C(=O)N[C@@H](CCCNC(=N)N)C(=O)N1CCC[C@H]1C(=O)N[C@@H](CCCNC(=N)N)C(=O)N[C@@H](Cc1ccc(O)cc1)C(N)=O)[C@@H](C)O [Compound U] (H-PLEPVYPGDNAK([AEEA-AEEA-γGlu-C18 diacid])PEQMAQYAADLRRYINMLTRPRY-NH2; N-terminus and C-terminus assumed) | 23
CC[C@H](C)[C@H](NC(=O)[C@H](Cc1ccc(O)cc1)NC(=O)[C@H](CCCNC(=N)N)NC(=O)[C@H](CCCNC(=N)N)NC(=O)[C@H](CC(C)C)NC(=O)[C@H](CC(=O)O)NC(=O)[C@H](C)NC(=O)[C@H](C)NC(=O)[C@H](Cc1ccc(O)cc1)NC(=O)[C@H](CCC(N)=O)NC(=O)[C@H](C)NC(=O)[C@H](CCSC)NC(=O)[C@H](CCC(N)=O)NC(=O)[C@H](CCC(=O)O)NC(=O)[C@H](CCCCNC(=O)COCCOCCNC(=O)COCCOCCNC(=O)CC[C@H](NC(=O)CCCCCCCCCCCCCCCCC(=O)O)C(=O)O)NC(=O)[C@@H](NC(=O)[C@H](C)NC(=O)[C@H](CC(N)=O)NC(=O)[C@H](CC(=O)O)NC(=O)CNC(=O)[C@@H]1CCCN1C(=O)[C@H](Cc1ccc(O)cc1)NC(=O)[C@@H](NC(=O)[C@@H]1CCCN1C(=O)[C@H](CCC(=O)O)NC(=O)[C@H](CC(C)C)NC(=O)[C@@H]1CCCN1)C(C)C)[C@@H](C)O)C(=O)N[C@@H](CC(N)=O)C(=O)N[C@@H](CCSC)C(=O)N[C@@H](CC(C)C)C(=O)N[C@H](C(=O)N[C@@H](CCCNC(=N)N)C(=O)N1CCC[C@H]1C(=O)N[C@@H](CCCNC(=N)N)C(=O)N[C@@H](Cc1ccc(O)cc1)C(N)=O)[C@@H](C)O [Compound T] (H-PLEPVYPGDNATK([AEEA-AEEA-γGlu-C18 diacid])EQMAQYAADLRRYINMLTRPRY-NH2; N-terminus and C-terminus assumed) | 45
CC[C@H](C)[C@H](NC(=O)[C@H](Cc1ccc(O)cc1)NC(=O)[C@H](CCCNC(=N)N)NC(=O)[C@H](CCCNC(=N)N)NC(=O)[C@H](CC(C)C)NC(=O)[C@H](CC(=O)O)NC(=O)[C@H](C)NC(=O)[C@H](C)NC(=O)[C@H](Cc1ccc(O)cc1)NC(=O)[C@H](CCC(N)=O)NC(=O)[C@H](C)NC(=O)[C@H](CCSC)NC(=O)[C@H](CCC(N)=O)NC(=O)[C@H](CCC(=O)O)NC(=O)[C@@H]1CCCN1C(=O)[C@@H](NC(=O)[C@H](C)NC(=O)[C@H](CC(N)=O)NC(=O)[C@H](CCCCNC(=O)COCCOCCNC(=O)COCCOCCNC(=O)CC[C@H](NC(=O)CCCCCCCCCCCCCCCCC(=O)O)C(=O)O)NC(=O)CNC(=O)[C@@H]1CCCN1C(=O)[C@H](Cc1ccc(O)cc1)NC(=O)[C@@H](NC(=O)[C@@H]1CCCN1C(=O)[C@H](CCC(=O)O)NC(=O)[C@@H](N)CC(C)C)C(C)C)[C@@H](C)O)C(=O)N[C@@H](CC(N)=O)C(=O)N[C@@H](CCSC)C(=O)N[C@@H](CC(C)C)C(=O)N[C@H](C(=O)N[C@@H](CCCNC(=N)N)C(=O)N1CCC[C@H]1C(=O)N[C@@H](CCCNC(=N)N)C(=O)N[C@@H](Cc1ccc(O)cc1)C(N)=O)[C@@H](C)O [Compound BF] | 17
CC[C@H](C)[C@H](NC(=O)[C@H](Cc1ccc(O)cc1)NC(=O)[C@H](CCCNC(=N)N)NC(=O)[C@H](CCCNC(=N)N)NC(=O)[C@H](CC(C)C)NC(=O)[C@H](CC(=O)O)NC(=O)[C@H](C)NC(=O)[C@H](C)NC(=O)[C@H](Cc1ccc(O)cc1)NC(=O)[C@H](CCC(N)=O)NC(=O)[C@H](C)NC(=O)[C@H](CCSC)NC(=O)[C@H](CCC(N)=O)NC(=O)[C@H](CCC(=O)O)NC(=O)[C@@H]1CCCN1C(=O)[C@@H](NC(=O)[C@H](C)NC(=O)[C@H](CC(N)=O)NC(=O)[C@H](CC(=O)O)NC(=O)CNC(=O)[C@@H]1CCCN1C(=O)[C@H](Cc1ccc(O)cc1)NC(=O)[C@@H](NC(=O)[C@@H]1CCCN1C(=O)[C@H](CCC(=O)O)NC(=O)[C@H](CC(C)C)NC(=O)[C@@H]1CCCN1)C(C)C)[C@@H](C)O)C(=O)N[C@@H](CC(N)=O)C(=O)N[C@@H](CCCCNC(=O)COCCOCCNC(=O)COCCOCCNC(=O)CC[C@H](NC(=O)CCCCCCCCCCCCCCCCC(=O)O)C(=O)O)C(=O)N[C@@H](CC(C)C)C(=O)N[C@H](C(=O)N[C@@H](CCCNC(=N)N)C(=O)N1CCC[C@H]1C(=O)N[C@@H](CCCNC(=N)N)C(=O)N[C@@H](Cc1ccc(O)cc1)C(N)=O)[C@@H](C)O [Compound D] (H-PLEPVYPGDNATPEQMAQYAADLRRYINK([AEEA-AEEA-γGlu-C18 diacid])LTRPRY-NH2; N-terminus and C-terminus assumed) | 77
CC[C@H](C)[C@H](NC(=O)[C@H](Cc1ccc(O)cc1)NC(=O)[C@H](CCCNC(=N)N)NC(=O)[C@H](CCCNC(=N)N)NC(=O)[C@H](CC(C)C)NC(=O)[C@H](CC(=O)O)NC(=O)[C@H](C)NC(=O)[C@H](C)NC(=O)[C@H](Cc1ccc(O)cc1)NC(=O)[C@H](CCC(N)=O)NC(=O)[C@H](C)NC(=O)[C@H](CCSC)NC(=O)[C@H](CCC(N)=O)NC(=O)[C@H](CCC(=O)O)NC(=O)[C@@H]1CCCN1C(=O)[C@@H](NC(=O)[C@H](C)NC(=O)[C@H](CC(N)=O)NC(=O)[C@H](CC(=O)O)NC(=O)CNC(=O)[C@@H]1CCCN1C(=O)[C@H](Cc1ccc(O)cc1)NC(=O)[C@@H](NC(=O)[C@@H]1CCCN1C(=O)[C@H](CCCCNC(=O)COCCOCCNC(=O)COCCOCCNC(=O)CC[C@H](NC(=O)CCCCCCCCCCCCCCCCC(=O)O)C(=O)O)NC(=O)[C@H](CC(C)C)NC(=O)[C@@H]1CCCN1)C(C)C)[C@@H](C)O)C(=O)N[C@@H](CC(N)=O)C(=O)N[C@@H](CCSC)C(=O)N[C@@H](CC(C)C)C(=O)N[C@H](C(=O)N[C@@H](CCCNC(=N)N)C(=O)N1CCC[C@H]1C(=O)N[C@@H](CCCNC(=N)N)C(=O)N[C@@H](Cc1ccc(O)cc1)C(N)=O)[C@@H](C)O [Compound AD] | 52
CC[C@H](C)[C@H](NC(=O)[C@H](Cc1ccc(O)cc1)NC(=O)[C@H](CCCNC(=N)N)NC(=O)[C@H](CCCNC(=N)N)NC(=O)[C@H](CC(C)C)NC(=O)[C@H](CC(=O)O)NC(=O)[C@H](C)NC(=O)[C@H](C)NC(=O)[C@H](Cc1ccc(O)cc1)NC(=O)[C@H](CCC(N)=O)NC(=O)[C@H](C)NC(=O)[C@H](CCSC)NC(=O)[C@H](CCC(N)=O)NC(=O)[C@H](CCC(=O)O)NC(=O)[C@@H]1CCCN1C(=O)[C@@H](NC(=O)[C@H](C)NC(=O)[C@H](CC(N)=O)NC(=O)[C@H](CC(=O)O)NC(=O)CNC(=O)[C@@H]1CCCN1C(=O)[C@H](Cc1ccc(O)cc1)NC(=O)[C@H](CCCCNC(=O)COCCOCCNC(=O)COCCOCCNC(=O)CC[C@H](NC(=O)CCCCCCCCCCCCCCCCC(=O)O)C(=O)O)NC(=O)[C@@H]1CCCN1C(=O)[C@H](CCC(=O)O)NC(=O)[C@@H](N)CC(C)C)[C@@H](C)O)C(=O)N[C@@H](CC(N)=O)C(=O)N[C@@H](CCSC)C(=O)N[C@@H](CC(C)C)C(=O)N[C@H](C(=O)N[C@@H](CCCNC(=N)N)C(=O)N1CCC[C@H]1C(=O)N[C@@H](CCCNC(=N)N)C(=O)N[C@@H](Cc1ccc(O)cc1)C(N)=O)[C@@H](C)O [Compound BJ] | 29
